According to ChEMBL document CHEMBL5604063, “ASAP - DENV-2 NS2B-NS3 protease fluorescence dose response” (2024):
Values joined by “and” are separate entries in the source; they are usually repeats but may differ in a detail not shown here. Equal values may be shown once.

What was measured:
[1] = biological target: T1, Genome polyprotein (dengue virus type 2, UniProt P29990); assay type: functional, Thailand/16681/1984
[2] = biological target: T1, Genome polyprotein; assay type: functional, Thailand/16681/1984; remark: listed apart in the source

T1 sequence (P29990 1346-1475 limits assumed): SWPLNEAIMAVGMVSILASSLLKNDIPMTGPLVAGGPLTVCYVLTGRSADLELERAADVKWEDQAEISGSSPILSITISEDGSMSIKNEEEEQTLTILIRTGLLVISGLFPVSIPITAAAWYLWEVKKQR
T1 sequence (P29990 1476-2093 limits assumed): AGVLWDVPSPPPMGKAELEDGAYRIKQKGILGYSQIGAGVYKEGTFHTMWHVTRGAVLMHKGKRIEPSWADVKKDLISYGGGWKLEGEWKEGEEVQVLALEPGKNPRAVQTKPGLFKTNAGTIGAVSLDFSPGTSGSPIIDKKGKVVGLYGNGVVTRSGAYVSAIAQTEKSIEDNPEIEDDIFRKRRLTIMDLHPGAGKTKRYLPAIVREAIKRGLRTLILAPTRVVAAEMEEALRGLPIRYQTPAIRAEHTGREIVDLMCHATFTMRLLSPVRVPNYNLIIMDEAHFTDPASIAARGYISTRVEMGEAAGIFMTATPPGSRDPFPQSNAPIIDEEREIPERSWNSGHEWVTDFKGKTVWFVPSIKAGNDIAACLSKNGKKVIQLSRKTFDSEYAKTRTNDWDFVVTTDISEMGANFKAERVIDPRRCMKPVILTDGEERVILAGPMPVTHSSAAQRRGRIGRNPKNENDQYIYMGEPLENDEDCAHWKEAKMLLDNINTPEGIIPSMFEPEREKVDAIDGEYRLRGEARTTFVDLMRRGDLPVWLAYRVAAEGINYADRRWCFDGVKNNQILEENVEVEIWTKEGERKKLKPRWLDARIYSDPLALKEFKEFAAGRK

Structure (SMILES) | IC50 [1] | IC50 [2]
CCOC(=O)[C@H](Nc1ccc2c(c1)CNC2)c1cc(Cl)cc(C2CC2)c1 | 89.8 µM | 76.7 µM
O=C(Nc1ccc2c(c1)CNC2)c1ccc2c(c1)C1(CC1)C(=O)N2 | > 100 µM | > 99.5 µM
O=C1Cc2c(cccc2C(=O)Nc2ccc3c(c2)[C@H](O)CCO3)N1 | > 100 µM | > 99.5 µM
CSc1cc2c(cc1NC(=O)c1cc(F)cc3[nH]ncc13)CNC2 | > 100 µM | 71.1 µM
O=C1Cc2c(cccc2C(=O)Nc2ccnn2Cc2ccncc2)N1 | > 100 µM | > 99.5 µM
CN1CCC[C@H](c2nc3c(C(=O)Nc4ccc5c(c4)CNC5)cc(F)cc3[nH]2)C1=O | > 100 µM | > 99.5 µM
O=C(NCC(F)F)[C@H](Nc1ccc2c(c1)CNC2)c1cc(Br)cc2nc[nH]c12 | > 100 µM | > 99.5 µM
O=C1Cc2c(cccc2C(=O)Nc2nnc3n2CCCS3)N1 | > 100 µM | > 99.5 µM
O=C(O)COc1ccc(Cl)cc1[C@H](Nc1ccc2c(c1)CNC2)C(=O)NCC(F)F | > 100 µM | > 99.5 µM
NC(=O)c1cn(C2CCCC2)nc1NC(=O)c1cccc2c1CC(=O)N2 | > 100 µM | > 99.5 µM
O=C1Cc2c(cccc2C(=O)Nc2cnn(Cc3ccncc3)c2)N1 | > 100 µM | > 99.5 µM
O=C1Cc2c(cccc2C(=O)Nc2ccc3[nH]nnc3c2)N1 | > 100 µM | > 99.5 µM
CC(C)(C)OC(=O)N1Cc2cc(NC(=O)c3cc(Cl)cc4c3cnn4[C@@H]3CCCCO3)ccc2[C@H]1CO | > 100 µM | > 99.5 µM
C=C(C)c1ccc(Cl)cc1[C@H](Nc1ccc2c(c1)CNC2)C(=O)NCC(F)F | > 100 µM | > 99.5 µM
N#CCOc1ccc(Br)cc1[C@H](Nc1ccc2c(c1)CNC2)C(=O)NCC(F)F | > 100 µM | > 99.5 µM
CO[C@]1(C)C(=O)Nc2cc(F)cc(C(=O)Nc3ccc4c(c3)CNC4)c21 | > 100 µM | > 99.5 µM
O=C1Cc2c(cccc2C(=O)Nc2ccc3c(c2)CCNCC3)N1 | 33.8 µM | 21 µM
C[C@]1(OCCCO)C(=O)Nc2cc(F)cc(C(=O)Nc3ccc4c(c3)CNC4)c21 | > 100 µM | > 99.5 µM
O=C(Nc1cnc2c(c1)CNC2)c1cc(F)cc2[nH]ncc12 | 46.6 µM and 49.7 µM | 36.5 µM
O=C(NCC(F)F)[C@H](Nc1cc2c(cc1Br)CNC2)c1cc(Cl)cc(C2CC2)c1 | 91.9 µM and 70.7 µM | > 99.5 µM
CC(C)CO[C@]1(C)C(=O)Nc2cc(F)cc(C(=O)Nc3ccc4c(c3)CNC4)c21 | > 100 µM | > 99.5 µM

Structure (SMILES) | IC50 [1] | IC50 [2]
Cc1cc(C(=O)Nc2ccc3c(c2)CNC3)cc2nn[nH]c12 | > 100 µM | > 99.5 µM
CC(C)c1nnc(-c2nc3c(C(=O)Nc4ccc5c(c4)CNC5)cc(F)cc3[nH]2)s1 | 64.1 µM and 67.1 µM | 35.2 µM and 34.8 µM
CNC(=O)c1cc(Br)cc([C@H](Nc2ccc3c(c2)CNC3)C(=O)NCC(F)F)c1 | > 100 µM | > 99.5 µM
O=C(Nc1ccc2c(c1)CN[C@H]2CC1CC1)c1cc(F)cc2[nH]ncc12 | 31.3 µM and 22.1 µM | 37.9 µM
O=C1Nc2ccc(C(=O)Nc3ccc4c(c3)CNC4)cc2C1=O | 5.35 µM and 5.79 µM | 2.66 µM and 1.99 µM
CCS(=O)(=O)c1ccc(Cl)cc1[C@H](Nc1ccc2c(c1)CNC2)C(=O)NCC(F)F | > 100 µM | > 99.5 µM
COc1ccc(-c2nc3c(C(=O)Nc4ccc5c(c4)CNC5)cc(F)cc3[nH]2)nn1 | 32 µM and 19 µM and 38 µM and 36.5 µM | 11.4 µM and 19.1 µM and 8.41 µM
CC(C)(C)OC(=O)N1Cc2ccc(N[C@H](C(=O)O)c3cc(Cl)cc4[nH]ncc34)cc2C1 | 57.6 µM and 41.9 µM | 78.2 µM
Cc1c(C(=O)Nc2cc(C(=O)N3CC4(CCO4)C3)ccn2)cc(C2CC2)n1C | > 100 µM | > 99.5 µM
O=C1Cc2c(cccc2C(=O)Nc2cnc(OC3CCC3)nc2)N1 | > 100 µM | > 99.5 µM
Cn1nc([C@H](Nc2cc([C@H]3CCOC3)ccn2)C(F)(F)F)cc1C1CC1 | > 100 µM | > 99.5 µM
COc1cc(Cl)cc([C@H](Nc2ccc3c(c2)CNC3)C(=O)NCC(F)F)c1 | > 100 µM | > 99.5 µM
Cc1cc(CN)cc(NC(=O)c2cccc3c2CC(=O)N3)c1 | > 100 µM | 75.9 µM
Cc1c(C(=O)Nc2cc(C(=O)N(C)C3COC3)ccn2)cc(C2CC2)n1C | > 100 µM | > 99.5 µM
O=C1Cc2c(cccc2C(=O)Nc2ccc(Cl)c(CO)n2)N1 | > 100 µM | > 99.5 µM
O=C(Nc1ccc2c(c1)CNC2)c1cc(F)cc(-c2cnc3n2CCC3)c1 | > 100 µM | > 99.5 µM
N#CCc1cc(NC(=O)c2cc(F)cc3[nH]ncc23)cc2c1CNC2 | 38.3 µM and 18.9 µM | 23.5 µM
C[C@]1(OCCO)C(=O)Nc2cc(F)cc(C(=O)Nc3ccc4c(c3)CNC4)c21 | > 100 µM | > 99.5 µM
O=C(NCC(F)F)[C@H](Nc1ccc2c(c1)CNC2)c1cc(Cl)cc(Cl)c1OCCN1CCOCC1 | > 100 µM | > 99.5 µM
CC(=O)N[C@]1(C)C(=O)Nc2cc(F)cc(C(=O)Nc3ccc4c(c3)CNC4)c21 | > 100 µM | > 99.5 µM
NCc1ccc(-c2csc3cc(C(=O)Nc4ccc5c(c4)CNC5)ccc23)cc1 | > 100 µM | 28.4 µM and 18.3 µM

Structure (SMILES) | IC50 [1] | IC50 [2]
O=C1Cc2c(cccc2C(=O)Nc2ccc3c(c2)CNCC3)N1 | > 100 µM | 76.4 µM
O=C(NCC(F)F)[C@H](Nc1cnc2c(c1)CNC2)c1cc(Cl)cc(C2CC2)c1 | > 100 µM | > 99.5 µM
CC(C)Oc1ccc(Cl)cc1[C@H](Nc1ccc2c(c1)CNC2)C(=O)NCC(F)F | > 100 µM | > 99.5 µM
Cc1cc([C@H](Nc2ccc3c(c2)CNC3)C(=O)NCC(F)F)cc(C(F)(F)F)c1 | > 100 µM | > 99.5 µM
O=C(Nc1ccc2c(c1)CN[C@H]2[C@H](O)CO)c1cc(F)cc2[nH]ncc12 | > 100 µM | > 99.5 µM
NCCCn1c(C2CC2)cc(C(=O)Nc2cc([C@H]3CCOC3)ccn2)c1C1CC1 | > 100 µM | > 99.5 µM
O=C(Nc1ccc2c(c1)CNC2)c1cccc2c(C3CNC3)n[nH]c12 | 22.7 µM and 26.4 µM | 19 µM and 17.2 µM
O=C(NCC(F)F)[C@H](Nc1ccc2c(c1)CNC2)c1cc(Br)ccc1OCc1ccccn1 | > 100 µM | > 99.5 µM
Clc1cc(CNc2ccc3c(c2)[C@@H]2CC[C@H]3N2)c2cn[nH]c2c1 | > 100 µM | > 99.5 µM
O=C1Cc2c(cccc2C(=O)Nc2cccc(Cc3nn[nH]n3)c2)N1 | > 100 µM | > 99.5 µM
O=C1Cc2c(cccc2C(=O)Nc2ccc3c(c2)CNCCO3)N1 | > 100 µM | > 99.5 µM
NCc1cccc(NC(=O)c2cccc3c2CC(=O)N3)c1 | > 100 µM | > 99.5 µM
CS(=O)(=O)c1cncc(-c2cc(F)cc(C(=O)Nc3ccc4c(c3)CNC4)c2)c1 | > 100 µM | > 99.5 µM
O=C(NCC(F)F)[C@H](Nc1ccc2c(c1)CNC2)c1cc(Br)cc2cn[nH]c12 | > 100 µM | > 99.5 µM
CC(=O)N(c1ccc2c(c1)CNC2)[C@H](C(=O)NCC(F)F)c1cc(Cl)cc(C2CC2)c1 | > 100 µM | > 99.5 µM
COCCO[C@]1(C)C(=O)Nc2cc(F)cc(C(=O)Nc3ccc4c(c3)CNC4)c21 | > 100 µM | > 99.5 µM
O=C(NCC(F)F)[C@H](Nc1ccc2c(c1)CNC2)c1cc(Br)ccc1C1CC1 | > 100 µM | > 99.5 µM
Nc1ccncc1-c1cc(F)cc(C(=O)Nc2ccc3c(c2)CNC3)c1 | > 100 µM | > 99.5 µM
CCc1cnc2c(NC(=O)c3cccc4c3CC(=O)N4)cnn2c1 | > 100 µM | > 99.5 µM
O=C(Nc1ccc2c(c1)CNC2)c1cc(F)cc2[nH]c(-c3ccc(F)cc3O)nc12 | > 100 µM | 62.1 µM
C[C@H]1C(=O)Nc2ccc(C(=O)Nc3ccc4c(c3)CNC4)cc21 | 25.1 µM and 17.2 µM | 34.5 µM

Structure (SMILES) | IC50 [1] | IC50 [2]
N#Cc1c[nH]c2c(C(=O)Nc3ccc4c(c3)CNC4)cccc12 | > 100 µM | > 99.5 µM
O=C1Cc2c(cccc2C(=O)Nc2ccc3c(n2)CNC3)N1 | > 100 µM | > 99.5 µM
NCCc1cccc(NC(=O)c2cccc3c2CC(=O)N3)c1 | > 100 µM | > 99.5 µM
O=C(NCC(F)F)[C@H](Nc1ccc2c(c1)CNC2)c1cc(Br)cc2ccccc12 | > 100 µM | > 99.5 µM
CN1CCc2c([nH]c3ccc(C(=O)Nc4ccc5c(c4)CNC5)cc23)C1=O | > 100 µM | > 99.5 µM
O=C(NCC(F)F)[C@H](Nc1ccc2c(c1)CNC2)c1cc(Br)ccc1Oc1ccc(Cl)c(Cl)c1 | > 100 µM | > 99.5 µM
Cc1[nH]c2c(C(=O)Nc3ccc4c(c3)CNC4)cccc2c1C | > 100 µM | > 99.5 µM
O=C(Nc1cc2c(cn1)CNC2)c1cc(F)cc2[nH]ncc12 | > 100 µM | > 99.5 µM
C=CC[C@H]1NCc2cc(NCc3cc(Cl)cc4[nH]ncc34)ccc21 | > 100 µM | > 99.5 µM
O=C(O)C[C@H]1NCc2cc(NC(=O)c3cc(Cl)cc4[nH]ncc34)ccc21 | > 100 µM | > 99.5 µM
O=C(Nc1ccc2c(c1)CN[C@H]2CO)c1cc(F)cc2[nH]ncc12 | > 100 µM | > 99.5 µM
O=C(NCC(F)F)[C@H](Nc1ccc2c(c1)CNC2)c1cc(Cl)ccc1OC[C@H]1CCCO1 | > 100 µM | > 99.5 µM
O=C(Nc1ccc2c(c1)CNC2)c1cccc2c3c([nH]c12)CCC3 | > 100 µM | > 99.5 µM
O=C1CCc2cc(C(=O)Nc3ccc4c(c3)CNC4)cc(F)c2N1 | > 100 µM | > 99.5 µM
CC(C)O[C@]1(C)C(=O)Nc2cc(F)cc(C(=O)Nc3ccc4c(c3)CNC4)c21 | > 100 µM | > 99.5 µM
Cc1c(C(=O)Nc2cc(C(=O)N3CC(C(N)=O)C3)ccn2)cc(C2CC2)n1C | > 100 µM | > 99.5 µM
C[C@H](NC(=O)c1cccc2c1CC(=O)N2)c1nnc2n1CCCC2 | > 100 µM | > 99.5 µM
NCc1csc2cc(C(=O)Nc3cc([C@H]4CCOC4)ccn3)ccc12 | > 100 µM | > 99.5 µM
N[C@H]1Cc2ccc(NC(=O)c3cccc4c3CC(=O)N4)cc2C1 | 48.5 µM and 56.1 µM | 20.5 µM
CC(C)n1nncc1-c1cc(F)cc(C(=O)Nc2ccc3c(c2)CNC3)c1 | > 100 µM | 89 µM
